{"source": "patent US9687545B2", "about": "“Nonspecific immunostimulator composition, method of preparation the same, and its use” (BARODON-S.F.CORP., priority 2014, dated 2017)", "test_system": "highly pathogenic AIV H5N1", "type": "in vivo, BALB/C mice", "conditions": "for body weight change after challenge: challenged groups treated with BARODON or TamiFlu, 2 weeks", "note": "Read-outs that look alike come from different tables or passages of the source."}
{"smiles": "CCOC(=O)C1=C[C@@H](OC(CC)CC)[C@H](NC(C)=O)[C@@H](N)C1", "note": "[TamiFlu]", "values": [{"measurement": "survival rate", "setting": "TamiFlu 10 mg/kg/day orally for 5 days after challenge, by D12", "result": 75, "unit": "%"}, {"measurement": "body weight change after challenge", "result": "none of the groups treated with TamiFlu and BARODON exhibited weight gain after challenge"}, {"measurement": "body weight change after challenge", "setting": "listed as TamiFlue", "result": "no difference in weight change between groups"}]}
